# Literature values as cited in patent US10806768B2, “Composition for promoting metallothionein production” (priority 2016, dated 2020).
compound,measurement,setting,value
"CC(=O)N[C@@H](CS)C(=O)O [NAC, N-Acetyl-Cysteine]","oxidative glutathione disulfide (GSSG) level, NAC group","only at a trend level of significance, p=0.09",increased
same,"CGI-I, NAC versus placebo groups",p>0.69,no statistically significant difference
same,"glutathione (GSH) level in blood, NAC group","versus placebo, p<0.05",significantly higher
same,"DNA strand break and oxidative damage, NAC versus placebo groups",week 12,no significant difference
same,"GSH/GSSG ratio, NAC versus placebo groups",week 12,no significant difference
same,"blood homocysteine levels, NAC versus placebo groups",week 12,no significant difference
